Key:
Assay in all cases: radiometric filter-binding kinase assay, Kinase HotSpot
Details in all cases: compound 0.5 µM; ATP 10 µM
MLTK (human) = MLTK (human) (UniProt Q9NYL2)
PIM1 (human) = PIM1 (human) (UniProt P11309)
STK16 (human) = STK16 (human) (UniProt O75716)
CSNK1D (human) = CSNK1D (human) (UniProt P48730)
NEK9 (human) = NEK9 (human) (UniProt Q8TD19)
PRKD1 (human) = PRKD1 (human) (UniProt Q15139)
NEK11 (human) = NEK11 (human) (UniProt Q8NG66)
RPS6KA6 KD1 KD2 (human) = RPS6KA6 KD1 KD2 (human) (UniProt Q9UK32)
CDK2 CCNE1 (human) = CDK2 CCNE1 (human) (UniProt P24941+P24864)
ULK1 (human) = ULK1 (human) (UniProt O75385)
Sequence of ULK1 (human) (O75385 whole entry, looked up): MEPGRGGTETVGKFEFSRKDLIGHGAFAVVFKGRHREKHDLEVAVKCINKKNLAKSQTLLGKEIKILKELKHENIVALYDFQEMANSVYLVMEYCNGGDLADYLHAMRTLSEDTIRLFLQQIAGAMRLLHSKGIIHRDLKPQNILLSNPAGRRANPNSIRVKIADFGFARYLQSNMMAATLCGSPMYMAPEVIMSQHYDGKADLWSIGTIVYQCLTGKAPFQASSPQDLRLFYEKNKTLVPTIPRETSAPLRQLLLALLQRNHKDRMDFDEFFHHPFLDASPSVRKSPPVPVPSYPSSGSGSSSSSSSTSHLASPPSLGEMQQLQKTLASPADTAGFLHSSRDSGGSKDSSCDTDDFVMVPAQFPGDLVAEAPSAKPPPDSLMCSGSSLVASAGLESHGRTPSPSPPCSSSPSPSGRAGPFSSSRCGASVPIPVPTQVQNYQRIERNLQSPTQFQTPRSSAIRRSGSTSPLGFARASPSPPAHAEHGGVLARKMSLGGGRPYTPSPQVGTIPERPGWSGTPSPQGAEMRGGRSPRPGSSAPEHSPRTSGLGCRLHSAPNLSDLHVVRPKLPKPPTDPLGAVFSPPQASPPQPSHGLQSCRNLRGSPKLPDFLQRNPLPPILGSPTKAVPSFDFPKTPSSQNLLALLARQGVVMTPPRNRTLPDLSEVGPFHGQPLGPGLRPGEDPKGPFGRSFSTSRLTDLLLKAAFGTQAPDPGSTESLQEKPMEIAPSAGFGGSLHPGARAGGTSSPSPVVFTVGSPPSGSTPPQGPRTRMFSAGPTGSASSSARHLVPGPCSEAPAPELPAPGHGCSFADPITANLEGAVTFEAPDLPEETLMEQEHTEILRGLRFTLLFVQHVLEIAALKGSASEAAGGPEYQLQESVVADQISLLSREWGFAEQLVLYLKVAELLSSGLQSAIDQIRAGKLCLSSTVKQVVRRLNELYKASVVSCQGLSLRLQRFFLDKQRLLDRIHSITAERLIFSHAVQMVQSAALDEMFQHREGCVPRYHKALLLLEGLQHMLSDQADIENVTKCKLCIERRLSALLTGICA

GRK6 (human) = GRK6 (human) (UniProt P43250)
Sequence of GRK6 (human) (P43250 whole entry, looked up): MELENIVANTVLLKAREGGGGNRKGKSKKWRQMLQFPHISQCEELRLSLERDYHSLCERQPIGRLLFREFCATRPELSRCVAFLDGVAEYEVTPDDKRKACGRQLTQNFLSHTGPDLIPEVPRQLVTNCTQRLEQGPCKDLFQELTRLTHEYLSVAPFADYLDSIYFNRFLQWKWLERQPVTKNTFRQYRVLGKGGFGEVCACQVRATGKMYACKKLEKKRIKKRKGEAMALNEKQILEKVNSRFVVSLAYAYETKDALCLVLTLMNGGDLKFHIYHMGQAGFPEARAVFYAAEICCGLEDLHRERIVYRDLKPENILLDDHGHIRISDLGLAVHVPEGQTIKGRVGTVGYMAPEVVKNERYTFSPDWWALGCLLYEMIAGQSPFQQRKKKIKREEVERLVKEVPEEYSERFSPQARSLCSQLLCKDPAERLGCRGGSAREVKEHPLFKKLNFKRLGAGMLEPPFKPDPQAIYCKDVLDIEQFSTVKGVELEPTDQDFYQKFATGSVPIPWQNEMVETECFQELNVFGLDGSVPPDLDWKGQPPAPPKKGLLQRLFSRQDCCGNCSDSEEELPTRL

MYLK (human) = MYLK (human) (UniProt Q15746)
MAPK11 (human) = MAPK11 (human) (UniProt Q15759)
JAK3 JH1 JH2 (human) = JAK3 JH1 JH2 (human) (UniProt P52333)
PTK2B (human) = PTK2B (human) (UniProt Q14289)
HIPK1 (human) = HIPK1 (human) (UniProt Q86Z02)
PASK (human) = PASK (human) (UniProt Q96RG2)
TEC (human) = TEC (human) (UniProt P42680)
ROCK2 (human) = ROCK2 (human) (UniProt O75116)
PDPK1 (human) = PDPK1 (human) (UniProt O15530)
CAMK2G (human) = CAMK2G (human) (UniProt Q13555)
EPHA5 (human) = EPHA5 (human) (UniProt P54756)
INSRR (human) = INSRR (human) (UniProt P14616)
MAPK10 (human) = MAPK10 (human) (UniProt P53779)
SGK3 (human) = SGK3 (human) (UniProt Q96BR1)
CAMK2A (human) = CAMK2A (human) (UniProt Q9UQM7)
CDK6 CCND3 (human) = CDK6 CCND3 (human) (UniProt P30281+Q00534)
PRKACA (human) = PRKACA (human) (UniProt P17612)
MAP3K14 (human) = MAP3K14 (human) (UniProt Q99558)
PRKCA (human) = PRKCA (human) (UniProt P17252)
NEK3 (human) = NEK3 (human) (UniProt P51956)
KDR (human) = KDR (human) (UniProt P35968)
RPS6KA5 KD2 (human) = RPS6KA5 KD2 (human) (UniProt O75582)
MAPK14 (human) = MAPK14 (human) (UniProt Q16539)
DYRK4 (human) = DYRK4 (human) (UniProt Q9NR20)
WNK3 (human) = WNK3 (human) (UniProt Q9BYP7)
Sequence of WNK3 (human) (Q9BYP7 whole entry, looked up): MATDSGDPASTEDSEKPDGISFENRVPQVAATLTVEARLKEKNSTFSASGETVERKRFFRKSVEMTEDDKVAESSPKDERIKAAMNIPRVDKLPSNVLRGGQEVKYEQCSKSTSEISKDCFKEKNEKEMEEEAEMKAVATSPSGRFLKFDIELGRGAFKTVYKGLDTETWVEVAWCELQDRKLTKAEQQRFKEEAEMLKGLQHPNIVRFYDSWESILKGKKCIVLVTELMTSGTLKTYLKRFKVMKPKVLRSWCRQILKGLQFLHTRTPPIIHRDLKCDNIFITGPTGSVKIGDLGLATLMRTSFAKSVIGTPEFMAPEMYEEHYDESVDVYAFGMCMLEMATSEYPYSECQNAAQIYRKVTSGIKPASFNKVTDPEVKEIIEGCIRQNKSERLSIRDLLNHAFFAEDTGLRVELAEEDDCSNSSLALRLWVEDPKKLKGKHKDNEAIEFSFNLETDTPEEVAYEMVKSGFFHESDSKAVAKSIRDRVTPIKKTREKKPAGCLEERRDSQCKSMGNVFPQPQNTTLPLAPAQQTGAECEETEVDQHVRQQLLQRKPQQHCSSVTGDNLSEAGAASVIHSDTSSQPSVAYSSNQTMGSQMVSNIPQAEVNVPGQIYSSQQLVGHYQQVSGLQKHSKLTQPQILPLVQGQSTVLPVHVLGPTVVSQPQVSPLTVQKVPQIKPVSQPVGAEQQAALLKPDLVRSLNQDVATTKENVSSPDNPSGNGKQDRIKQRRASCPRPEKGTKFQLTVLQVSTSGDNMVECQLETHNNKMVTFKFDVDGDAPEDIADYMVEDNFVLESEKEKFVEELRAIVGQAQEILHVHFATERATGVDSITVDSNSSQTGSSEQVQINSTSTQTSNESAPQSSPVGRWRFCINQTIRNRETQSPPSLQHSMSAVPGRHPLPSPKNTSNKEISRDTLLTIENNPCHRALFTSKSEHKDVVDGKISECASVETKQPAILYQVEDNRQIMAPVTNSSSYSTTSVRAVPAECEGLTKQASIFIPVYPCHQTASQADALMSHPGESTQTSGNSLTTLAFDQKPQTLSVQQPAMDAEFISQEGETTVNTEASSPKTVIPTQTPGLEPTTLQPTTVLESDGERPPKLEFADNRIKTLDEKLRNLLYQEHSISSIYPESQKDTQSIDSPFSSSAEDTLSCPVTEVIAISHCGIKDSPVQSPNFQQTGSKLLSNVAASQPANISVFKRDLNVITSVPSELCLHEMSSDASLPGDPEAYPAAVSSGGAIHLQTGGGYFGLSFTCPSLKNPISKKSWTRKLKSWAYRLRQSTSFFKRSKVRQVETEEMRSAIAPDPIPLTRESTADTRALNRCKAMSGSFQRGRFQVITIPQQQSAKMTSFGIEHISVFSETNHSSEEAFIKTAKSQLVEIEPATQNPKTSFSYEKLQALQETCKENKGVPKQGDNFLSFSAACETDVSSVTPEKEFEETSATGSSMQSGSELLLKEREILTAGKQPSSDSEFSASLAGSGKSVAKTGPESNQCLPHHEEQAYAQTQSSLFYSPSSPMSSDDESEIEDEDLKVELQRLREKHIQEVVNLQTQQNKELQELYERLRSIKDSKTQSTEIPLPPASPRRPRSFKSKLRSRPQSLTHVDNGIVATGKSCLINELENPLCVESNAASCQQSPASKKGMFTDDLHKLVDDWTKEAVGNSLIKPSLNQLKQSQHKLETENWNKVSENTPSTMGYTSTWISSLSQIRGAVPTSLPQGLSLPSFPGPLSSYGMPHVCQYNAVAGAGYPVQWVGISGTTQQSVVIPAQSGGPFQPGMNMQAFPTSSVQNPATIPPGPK

MAP3K2 (human) = MAP3K2 (human) (UniProt Q9Y2U5)
MARK3 (human) = MARK3 (human) (UniProt P27448)
Sequence of MARK3 (human) (P27448 whole entry, looked up): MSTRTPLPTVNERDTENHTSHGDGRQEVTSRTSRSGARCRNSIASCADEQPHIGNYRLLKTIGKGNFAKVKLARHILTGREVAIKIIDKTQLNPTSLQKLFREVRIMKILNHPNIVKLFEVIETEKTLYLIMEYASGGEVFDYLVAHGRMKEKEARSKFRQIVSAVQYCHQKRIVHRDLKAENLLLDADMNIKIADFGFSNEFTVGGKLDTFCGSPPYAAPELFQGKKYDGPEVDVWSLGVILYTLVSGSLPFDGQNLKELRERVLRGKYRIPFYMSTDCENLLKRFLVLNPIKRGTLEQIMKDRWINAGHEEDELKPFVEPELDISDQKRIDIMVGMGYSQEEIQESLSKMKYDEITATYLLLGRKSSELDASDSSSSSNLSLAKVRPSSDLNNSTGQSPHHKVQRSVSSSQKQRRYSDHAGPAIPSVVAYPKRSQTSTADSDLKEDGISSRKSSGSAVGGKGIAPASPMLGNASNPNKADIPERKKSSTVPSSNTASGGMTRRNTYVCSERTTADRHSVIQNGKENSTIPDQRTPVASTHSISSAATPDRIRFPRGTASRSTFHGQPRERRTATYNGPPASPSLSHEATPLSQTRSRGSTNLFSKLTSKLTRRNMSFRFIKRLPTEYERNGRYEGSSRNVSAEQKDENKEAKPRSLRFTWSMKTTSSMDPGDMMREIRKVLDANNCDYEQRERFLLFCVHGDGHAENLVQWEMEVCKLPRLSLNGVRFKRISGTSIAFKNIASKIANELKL

FGFR1 (human) = FGFR1 (human) (UniProt P11362)
SGK2 (human) = SGK2 (human) (UniProt Q9HBY8)
STK11 (human) = STK11 (human) (UniProt Q15831)
Sequence of STK11 (human) (Q15831 whole entry, looked up): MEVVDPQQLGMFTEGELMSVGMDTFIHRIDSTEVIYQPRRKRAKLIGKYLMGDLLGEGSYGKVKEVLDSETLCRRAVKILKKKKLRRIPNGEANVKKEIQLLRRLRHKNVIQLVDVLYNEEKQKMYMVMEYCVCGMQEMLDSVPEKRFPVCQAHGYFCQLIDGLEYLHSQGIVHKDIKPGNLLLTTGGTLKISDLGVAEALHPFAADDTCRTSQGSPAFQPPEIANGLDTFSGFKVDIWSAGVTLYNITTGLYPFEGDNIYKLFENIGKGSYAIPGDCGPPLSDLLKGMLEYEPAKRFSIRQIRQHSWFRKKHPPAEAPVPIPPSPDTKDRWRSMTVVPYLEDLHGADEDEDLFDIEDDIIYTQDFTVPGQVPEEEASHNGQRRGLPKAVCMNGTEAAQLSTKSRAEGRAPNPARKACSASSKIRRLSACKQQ

CSF1R (human) = CSF1R (human) (UniProt P07333)

Sequence of CSNK1D (human) (P48730 whole entry, looked up): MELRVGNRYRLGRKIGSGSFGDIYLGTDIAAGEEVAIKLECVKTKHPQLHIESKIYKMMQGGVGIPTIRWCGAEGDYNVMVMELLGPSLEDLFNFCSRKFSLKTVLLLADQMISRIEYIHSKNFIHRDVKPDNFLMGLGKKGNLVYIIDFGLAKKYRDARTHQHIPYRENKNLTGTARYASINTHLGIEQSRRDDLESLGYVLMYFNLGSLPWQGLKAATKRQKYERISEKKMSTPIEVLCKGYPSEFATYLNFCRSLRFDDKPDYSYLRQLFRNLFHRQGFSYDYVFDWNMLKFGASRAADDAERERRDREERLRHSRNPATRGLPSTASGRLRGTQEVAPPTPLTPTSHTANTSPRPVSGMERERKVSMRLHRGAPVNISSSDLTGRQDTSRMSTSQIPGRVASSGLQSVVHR

O=C(c1ccccc1)c1ccc(N2CCOCC2)cc1O
residual activity (MLTK (human)): 95% | residual activity (PIM1 (human)): 101% | residual activity (STK16 (human)): 104% | residual activity (CSNK1D (human)): 100% | residual activity (NEK9 (human)): 103% | residual activity (PRKD1 (human)): 102% | residual activity (NEK11 (human)): 97.7% | residual activity (RPS6KA6 KD1 KD2 (human)): 101% | residual activity (CDK2 CCNE1 (human)): 99.6% | residual activity (ULK1 (human)): 98.9% | residual activity (GRK6 (human)): 99.4% | residual activity (MYLK (human)): 91.8% | residual activity (MAPK11 (human)): 99.3% | residual activity (JAK3 JH1 JH2 (human)): 103% | residual activity (PTK2B (human)): 102% | residual activity (HIPK1 (human)): 104% | residual activity (PASK (human)): 94.3% | residual activity (TEC (human)): 119% | residual activity (ROCK2 (human)): 96% | residual activity (PDPK1 (human)): 101% | residual activity (CAMK2G (human)): 94% | residual activity (EPHA5 (human)): 112% | residual activity (INSRR (human)): 97.6% | residual activity (MAPK10 (human)): 75.3% | residual activity (SGK3 (human)): 105% | residual activity (CAMK2A (human)): 105% | residual activity (CDK6 CCND3 (human)): 97.7% | residual activity (PRKACA (human)): 98.3% | residual activity (MAP3K14 (human)): 75.1% | residual activity (PRKCA (human)): 84.2% | residual activity (NEK3 (human)): 95.6% | residual activity (KDR (human)): 96.8% | residual activity (RPS6KA5 KD2 (human)): 102% | residual activity (MAPK14 (human)): 96.3% | residual activity (DYRK4 (human)): 94.9% | residual activity (WNK3 (human)): 104% | residual activity (MAP3K2 (human)): 102% | residual activity (MARK3 (human)): 105% | residual activity (FGFR1 (human)): 95.9% | residual activity (SGK2 (human)): 105% | residual activity (STK11 (human)): 104% | residual activity (CSF1R (human)): 99.7%

FC(F)(F)c1ccc(/C=C/c2nc(COc3ccc(CCCCn4ccnn4)cc3)co2)cc1
residual activity (MLTK (human)): 98.5% | residual activity (PIM1 (human)): 102% | residual activity (STK16 (human)): 104% | residual activity (CSNK1D (human)): 96.6% | residual activity (NEK9 (human)): 95.5% | residual activity (PRKD1 (human)): 93.2% | residual activity (NEK11 (human)): 97.6% | residual activity (RPS6KA6 KD1 KD2 (human)): 100% | residual activity (CDK2 CCNE1 (human)): 96.3% | residual activity (ULK1 (human)): 87.2% | residual activity (GRK6 (human)): 104% | residual activity (MYLK (human)): 94.8% | residual activity (MAPK11 (human)): 102% | residual activity (JAK3 JH1 JH2 (human)): 93% | residual activity (PTK2B (human)): 103% | residual activity (HIPK1 (human)): 101% | residual activity (PASK (human)): 104% | residual activity (TEC (human)): 86.4% | residual activity (ROCK2 (human)): 99.7% | residual activity (PDPK1 (human)): 104% | residual activity (CAMK2G (human)): 99% | residual activity (EPHA5 (human)): 99.9% | residual activity (INSRR (human)): 101% | residual activity (MAPK10 (human)): 94.6% | residual activity (SGK3 (human)): 89.2% | residual activity (CAMK2A (human)): 101% | residual activity (CDK6 CCND3 (human)): 90% | residual activity (PRKACA (human)): 101% | residual activity (MAP3K14 (human)): 95.8% | residual activity (PRKCA (human)): 111% | residual activity (NEK3 (human)): 100% | residual activity (KDR (human)): 106% | residual activity (RPS6KA5 KD2 (human)): 111% | residual activity (MAPK14 (human)): 103% | residual activity (DYRK4 (human)): 101% | residual activity (WNK3 (human)): 98.5% | residual activity (MAP3K2 (human)): 102% | residual activity (MARK3 (human)): 96.6% | residual activity (FGFR1 (human)): 101% | residual activity (SGK2 (human)): 103% | residual activity (STK11 (human)): 104% | residual activity (CSF1R (human)): 103%
